ChEMBL document CHEMBL4507320, “Data for DCP probe NVS-MALT1” (2021)

Tests used:
[1] = target: 5-hydroxytryptamine receptor 2A (Homo sapiens) (UniProt P28223); details: Compound concentration 10.0 uM
[2] = target: Serine/threonine-protein kinase TBK1 (Homo sapiens) (UniProt Q9UHD2); details: Compound concentration 1000.0 nM
[3] = target: Ribosomal protein S6 kinase alpha-6 (Homo sapiens) (UniProt Q9UK32); details: Compound concentration 1000.0 nM
[4] = target: Serine/threonine-protein kinase Nek6 (Homo sapiens) (UniProt Q9HC98); details: Compound concentration 1000.0 nM
[5] = target: Cyclin-dependent kinase 4 (Homo sapiens) (UniProt P11802); details: Compound concentration 1000.0 nM
[6] = target: Angiopoietin-1 receptor (Homo sapiens) (UniProt Q02763); details: Compound concentration 1000.0 nM
[7] = tested on: Receptor-type tyrosine-protein kinase FLT3 (Homo sapiens), P36888 [UNDEFINED MUTATION]; details: Compound concentration 1000.0 nM
[8] = target: Serine/threonine-protein kinase WNK2 (Homo sapiens) (UniProt Q9Y3S1); details: Compound concentration 1000.0 nM
[9] = tested on: Epidermal growth factor receptor (Homo sapiens), P00533 [L858R]; details: Compound concentration 1000.0 nM
[10] = target: Dual specificity tyrosine-phosphorylation-regulated kinase 2 (Homo sapiens) (UniProt Q92630); details: Compound concentration 1000.0 nM
[11] = tested on: Phosphatidylinositol 4,5-bisphosphate 3-kinase catalytic subunit alpha isoform (Homo sapiens), P42336 [M1043I]; details: Compound concentration 1000.0 nM
[12] = target: Serine/threonine-protein kinase 26 (Homo sapiens) (UniProt Q9P289); details: Compound concentration 1000.0 nM
[13] = target: Mitogen-activated protein kinase 7 (Homo sapiens) (UniProt Q13164); details: Compound concentration 1000.0 nM
[14] = target: Testis-specific serine/threonine-protein kinase 1 (Homo sapiens) (UniProt Q9BXA7); details: Compound concentration 1000.0 nM
[15] = tested on: Tyrosine-protein kinase ABL1 (Homo sapiens), P00519 [E255K]; details: Compound concentration 1000.0 nM
[16] = target: Serine/threonine-protein kinase PLK3 (Homo sapiens) (UniProt Q9H4B4); details: Compound concentration 1000.0 nM
[17] = target: Alpha-2A adrenergic receptor (Homo sapiens) (UniProt P08913); details: Compound concentration 10.0 uM
[18] = target: Interleukin-1 receptor-associated kinase 1 (Homo sapiens) (UniProt P51617); details: Compound concentration 1000.0 nM
[19] = target: Ribosomal protein S6 kinase alpha-2 (Homo sapiens) (UniProt Q15349); details: Compound concentration 1000.0 nM
[20] = target: Serine/threonine-protein kinase STK11 (Homo sapiens) (UniProt Q15831); details: Compound concentration 1000.0 nM
[21] = target: Cyclin-dependent kinase 11A (Homo sapiens) (UniProt Q9UQ88); details: Compound concentration 1000.0 nM
[22] = tested on: Phosphatidylinositol 4,5-bisphosphate 3-kinase catalytic subunit alpha isoform (Homo sapiens), P42336 [C420R]; details: Compound concentration 1000.0 nM
[23] = target: LIM domain kinase 1 (Homo sapiens) (UniProt P53667); details: Compound concentration 1000.0 nM
[24] = target: Sigma non-opioid intracellular receptor 1 (Homo sapiens, UniProt Q99720); details: Compound concentration 10.0 uM
[25] = target: Serine/threonine-protein kinase SIK2 (Homo sapiens) (UniProt Q9H0K1); details: Compound concentration 1000.0 nM
[26] = target: Cyclin-dependent kinase 14 (Homo sapiens) (UniProt O94921); details: Compound concentration 1000.0 nM
[27] = target: Ephrin type-B receptor 6 (Homo sapiens) (UniProt O15197); details: Compound concentration 1000.0 nM
[28] = target: Non-receptor tyrosine-protein kinase TYK2 (Homo sapiens) (UniProt P29597); details: Compound concentration 1000.0 nM
[29] = tested on: Epidermal growth factor receptor (Homo sapiens), P00533 [UNDEFINED MUTATION]; details: Compound concentration 1000.0 nM
[30] = tested on: ALK tyrosine kinase receptor (Homo sapiens), Q9UM73 [L1196M]; details: Compound concentration 1000.0 nM
[31] = target: Serine/threonine-protein kinase BRSK2 (Homo sapiens) (UniProt Q8IWQ3); details: Compound concentration 1000.0 nM
[32] = target: Cyclin-dependent kinase-like 3 (Homo sapiens) (UniProt Q8IVW4); details: Compound concentration 1000.0 nM
[33] = target: Wee1-like protein kinase (Homo sapiens) (UniProt P30291); details: Compound concentration 1000.0 nM
[34] = target: Protein kinase C epsilon type (Homo sapiens) (UniProt Q02156); details: Compound concentration 1000.0 nM
[35] = tested on: Epidermal growth factor receptor (Homo sapiens), P00533 [UNDEFINED MUTATION]; details: Compound concentration 1000.0 nM; remark: listed apart in the source
[36] = target: Ephrin type-A receptor 8 (Homo sapiens) (UniProt P29322); details: Compound concentration 1000.0 nM
[37] = target: Ribosomal protein S6 kinase alpha-4 (Homo sapiens) (UniProt O75676); details: Compound concentration 1000.0 nM
[38] = tested on: Epidermal growth factor receptor (Homo sapiens), P00533 [T790M]; details: Compound concentration 1000.0 nM
[39] = target: Casein kinase I isoform alpha (Homo sapiens) (UniProt P48729); details: Compound concentration 1000.0 nM
[40] = target: Protein kinase C iota type (Homo sapiens) (UniProt P41743); details: Compound concentration 1000.0 nM
[41] = target: Serine/threonine-protein kinase D3 (Homo sapiens) (UniProt O94806); details: Compound concentration 1000.0 nM
[42] = target: Serine/threonine-protein kinase 36 (Homo sapiens) (UniProt Q9NRP7); details: Compound concentration 1000.0 nM
[43] = target: Calcium-dependent protein kinase 1 (Plasmodium falciparum) (UniProt P62344); details: Compound concentration 1000.0 nM
[44] = target: Tyrosine-protein kinase Fer (Homo sapiens) (UniProt P16591); details: Compound concentration 1000.0 nM
[45] = target: 3-phosphoinositide-dependent protein kinase 1 (Homo sapiens) (UniProt O15530); details: Compound concentration 1000.0 nM

Chain of Serine/threonine-protein kinase D3 (Homo sapiens) (O94806 whole entry): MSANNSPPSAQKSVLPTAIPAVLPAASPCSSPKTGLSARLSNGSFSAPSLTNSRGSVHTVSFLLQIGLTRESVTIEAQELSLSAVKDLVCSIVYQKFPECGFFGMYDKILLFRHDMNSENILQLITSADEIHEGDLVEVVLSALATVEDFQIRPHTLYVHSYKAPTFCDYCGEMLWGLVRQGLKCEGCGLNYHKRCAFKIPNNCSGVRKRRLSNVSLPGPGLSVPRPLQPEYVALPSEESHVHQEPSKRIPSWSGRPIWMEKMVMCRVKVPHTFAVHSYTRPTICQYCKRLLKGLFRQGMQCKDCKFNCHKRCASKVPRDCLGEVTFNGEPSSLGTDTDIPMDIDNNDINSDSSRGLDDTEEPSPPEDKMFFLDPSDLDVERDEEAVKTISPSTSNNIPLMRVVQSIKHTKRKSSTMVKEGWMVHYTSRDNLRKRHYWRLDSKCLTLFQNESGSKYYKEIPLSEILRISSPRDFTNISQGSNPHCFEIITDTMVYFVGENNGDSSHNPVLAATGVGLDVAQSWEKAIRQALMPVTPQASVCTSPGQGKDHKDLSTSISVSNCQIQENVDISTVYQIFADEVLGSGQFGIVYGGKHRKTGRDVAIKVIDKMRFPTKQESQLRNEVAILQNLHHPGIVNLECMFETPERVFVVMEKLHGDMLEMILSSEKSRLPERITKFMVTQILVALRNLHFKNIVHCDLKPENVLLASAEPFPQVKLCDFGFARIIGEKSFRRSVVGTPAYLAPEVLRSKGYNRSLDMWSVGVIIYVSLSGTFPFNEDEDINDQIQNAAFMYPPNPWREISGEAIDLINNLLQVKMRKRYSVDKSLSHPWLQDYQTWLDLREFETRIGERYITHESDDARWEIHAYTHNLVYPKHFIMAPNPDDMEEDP
Chain of Serine/threonine-protein kinase STK11 (Homo sapiens) (Q15831 whole entry): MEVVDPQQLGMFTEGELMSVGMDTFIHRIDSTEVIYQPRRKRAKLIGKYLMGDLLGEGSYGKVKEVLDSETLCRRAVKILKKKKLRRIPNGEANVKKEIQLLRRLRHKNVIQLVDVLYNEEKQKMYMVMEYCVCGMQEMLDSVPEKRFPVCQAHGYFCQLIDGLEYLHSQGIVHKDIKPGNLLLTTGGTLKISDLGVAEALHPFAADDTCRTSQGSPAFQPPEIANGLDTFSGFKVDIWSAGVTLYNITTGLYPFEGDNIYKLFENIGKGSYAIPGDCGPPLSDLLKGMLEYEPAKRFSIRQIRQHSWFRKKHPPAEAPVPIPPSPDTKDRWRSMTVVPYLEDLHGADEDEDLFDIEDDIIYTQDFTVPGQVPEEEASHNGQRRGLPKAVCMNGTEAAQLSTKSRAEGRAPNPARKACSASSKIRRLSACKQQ
Chain of ALK tyrosine kinase receptor (Homo sapiens), Q9UM73 [L1196M] (Q9UM73 whole entry L1196M, looked up): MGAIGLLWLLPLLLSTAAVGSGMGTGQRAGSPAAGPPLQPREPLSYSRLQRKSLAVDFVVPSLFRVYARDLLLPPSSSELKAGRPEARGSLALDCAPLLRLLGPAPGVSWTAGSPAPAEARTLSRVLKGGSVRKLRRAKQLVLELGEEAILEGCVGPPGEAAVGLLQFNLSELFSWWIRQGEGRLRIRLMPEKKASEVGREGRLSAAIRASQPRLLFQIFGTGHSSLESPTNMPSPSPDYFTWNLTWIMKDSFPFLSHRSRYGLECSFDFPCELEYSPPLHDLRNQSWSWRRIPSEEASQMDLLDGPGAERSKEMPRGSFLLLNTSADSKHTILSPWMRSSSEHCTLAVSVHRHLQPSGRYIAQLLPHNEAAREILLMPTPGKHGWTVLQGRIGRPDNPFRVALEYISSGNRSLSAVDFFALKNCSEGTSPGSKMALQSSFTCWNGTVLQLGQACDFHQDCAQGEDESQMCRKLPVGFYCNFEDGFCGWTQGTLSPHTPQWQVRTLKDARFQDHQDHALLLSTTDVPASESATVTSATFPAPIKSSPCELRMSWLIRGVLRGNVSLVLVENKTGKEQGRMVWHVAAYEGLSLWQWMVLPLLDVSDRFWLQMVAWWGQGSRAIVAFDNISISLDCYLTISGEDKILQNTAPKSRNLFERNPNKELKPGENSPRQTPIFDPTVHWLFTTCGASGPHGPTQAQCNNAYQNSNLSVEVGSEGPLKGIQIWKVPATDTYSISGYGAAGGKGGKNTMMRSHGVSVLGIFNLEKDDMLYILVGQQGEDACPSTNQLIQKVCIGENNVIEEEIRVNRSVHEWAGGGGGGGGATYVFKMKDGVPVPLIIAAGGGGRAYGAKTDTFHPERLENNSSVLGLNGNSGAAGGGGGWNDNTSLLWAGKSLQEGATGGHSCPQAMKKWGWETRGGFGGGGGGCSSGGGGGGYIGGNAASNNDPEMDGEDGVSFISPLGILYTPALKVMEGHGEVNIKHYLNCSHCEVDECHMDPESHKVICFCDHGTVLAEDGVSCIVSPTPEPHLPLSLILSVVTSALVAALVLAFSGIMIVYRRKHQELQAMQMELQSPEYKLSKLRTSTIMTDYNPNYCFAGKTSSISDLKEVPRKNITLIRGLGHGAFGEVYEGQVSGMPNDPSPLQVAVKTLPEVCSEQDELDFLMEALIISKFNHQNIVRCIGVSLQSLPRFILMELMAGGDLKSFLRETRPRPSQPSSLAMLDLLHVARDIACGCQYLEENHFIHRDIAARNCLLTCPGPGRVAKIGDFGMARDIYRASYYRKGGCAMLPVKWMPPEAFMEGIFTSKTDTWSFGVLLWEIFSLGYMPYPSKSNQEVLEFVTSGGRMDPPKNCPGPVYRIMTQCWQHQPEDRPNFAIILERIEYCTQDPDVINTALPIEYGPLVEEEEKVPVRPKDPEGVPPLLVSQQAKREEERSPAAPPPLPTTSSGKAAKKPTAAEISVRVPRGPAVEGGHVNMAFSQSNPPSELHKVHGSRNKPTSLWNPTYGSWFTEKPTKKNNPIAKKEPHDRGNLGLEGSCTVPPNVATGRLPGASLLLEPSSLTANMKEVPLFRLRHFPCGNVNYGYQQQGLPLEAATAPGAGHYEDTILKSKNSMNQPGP
Chain of Non-receptor tyrosine-protein kinase TYK2 (Homo sapiens) (P29597 whole entry): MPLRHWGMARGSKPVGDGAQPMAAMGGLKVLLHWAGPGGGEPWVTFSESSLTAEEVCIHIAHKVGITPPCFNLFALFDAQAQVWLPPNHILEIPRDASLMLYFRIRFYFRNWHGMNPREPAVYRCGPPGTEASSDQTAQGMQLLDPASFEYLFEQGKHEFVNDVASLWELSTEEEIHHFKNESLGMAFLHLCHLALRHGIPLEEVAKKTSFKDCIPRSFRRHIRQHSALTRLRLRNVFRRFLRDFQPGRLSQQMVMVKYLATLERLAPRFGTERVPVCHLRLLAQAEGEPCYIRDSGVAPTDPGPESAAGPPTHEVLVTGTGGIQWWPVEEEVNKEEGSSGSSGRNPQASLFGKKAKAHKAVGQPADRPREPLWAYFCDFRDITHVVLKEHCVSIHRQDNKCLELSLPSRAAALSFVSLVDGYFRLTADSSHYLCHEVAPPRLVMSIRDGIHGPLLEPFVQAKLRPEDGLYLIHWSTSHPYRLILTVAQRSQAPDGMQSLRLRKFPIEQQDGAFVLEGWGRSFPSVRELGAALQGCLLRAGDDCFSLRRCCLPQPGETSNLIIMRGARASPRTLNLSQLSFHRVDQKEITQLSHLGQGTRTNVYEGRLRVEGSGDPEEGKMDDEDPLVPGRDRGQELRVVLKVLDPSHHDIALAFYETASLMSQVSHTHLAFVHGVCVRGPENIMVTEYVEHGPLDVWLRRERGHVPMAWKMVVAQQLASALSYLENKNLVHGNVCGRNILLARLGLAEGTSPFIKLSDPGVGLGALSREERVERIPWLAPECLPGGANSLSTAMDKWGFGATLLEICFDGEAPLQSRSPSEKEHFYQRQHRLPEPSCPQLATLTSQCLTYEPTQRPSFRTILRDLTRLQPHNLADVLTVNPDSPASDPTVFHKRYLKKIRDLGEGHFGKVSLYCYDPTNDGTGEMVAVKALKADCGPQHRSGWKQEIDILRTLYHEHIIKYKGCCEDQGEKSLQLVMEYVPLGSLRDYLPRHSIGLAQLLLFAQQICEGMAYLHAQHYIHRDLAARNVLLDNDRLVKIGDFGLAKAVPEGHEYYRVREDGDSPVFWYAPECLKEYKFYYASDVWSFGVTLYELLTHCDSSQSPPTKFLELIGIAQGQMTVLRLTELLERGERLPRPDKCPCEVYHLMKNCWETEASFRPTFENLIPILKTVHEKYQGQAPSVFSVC
Chain of Serine/threonine-protein kinase Nek6 (Homo sapiens) (Q9HC98 whole entry): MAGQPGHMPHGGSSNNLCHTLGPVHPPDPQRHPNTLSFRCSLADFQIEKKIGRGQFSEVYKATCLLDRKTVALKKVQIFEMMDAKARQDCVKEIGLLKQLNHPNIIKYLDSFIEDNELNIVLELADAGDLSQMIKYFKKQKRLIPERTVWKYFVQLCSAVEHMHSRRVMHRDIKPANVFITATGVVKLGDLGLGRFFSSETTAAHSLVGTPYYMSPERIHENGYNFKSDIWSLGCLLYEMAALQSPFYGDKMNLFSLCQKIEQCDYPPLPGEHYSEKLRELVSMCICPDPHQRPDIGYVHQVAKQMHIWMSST
Chain of Sigma non-opioid intracellular receptor 1 (Q99720 whole entry): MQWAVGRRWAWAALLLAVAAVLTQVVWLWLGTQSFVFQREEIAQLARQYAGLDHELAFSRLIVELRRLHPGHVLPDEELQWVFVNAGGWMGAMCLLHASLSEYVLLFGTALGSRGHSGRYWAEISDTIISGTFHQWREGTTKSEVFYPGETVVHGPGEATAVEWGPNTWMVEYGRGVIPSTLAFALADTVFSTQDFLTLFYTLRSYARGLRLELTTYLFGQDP
Chain of Testis-specific serine/threonine-protein kinase 1 (Homo sapiens) (Q9BXA7 whole entry): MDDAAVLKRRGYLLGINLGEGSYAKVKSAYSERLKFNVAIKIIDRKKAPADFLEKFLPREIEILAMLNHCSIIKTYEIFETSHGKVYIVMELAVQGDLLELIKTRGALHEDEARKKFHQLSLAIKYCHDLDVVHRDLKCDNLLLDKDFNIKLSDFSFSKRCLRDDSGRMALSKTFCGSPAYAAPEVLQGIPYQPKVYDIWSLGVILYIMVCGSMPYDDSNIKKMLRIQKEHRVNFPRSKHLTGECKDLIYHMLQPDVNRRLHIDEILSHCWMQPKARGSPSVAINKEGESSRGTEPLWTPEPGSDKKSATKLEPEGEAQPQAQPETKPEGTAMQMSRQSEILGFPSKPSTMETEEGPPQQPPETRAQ

CO[C@@H](C)c1c(Nc2ccc([C@@H](N(C)C(=O)C3CCS(=O)(=O)CC3)C(F)(F)F)cc2)cnc2cc(Cl)nn12 [NVS-MALT1-C]
inhibition [1]: 4.93%
residual activity [2]: 77%
residual activity [3]: 100%
residual activity [4]: 100%
residual activity [5]: 100%
residual activity [6]: 90%
residual activity [7]: 87%
residual activity [8]: 100%
residual activity [9]: 87%
residual activity [10]: 95%
residual activity [11]: 100%
residual activity [12]: 100%
residual activity [13]: 100%
residual activity [14]: 100%
residual activity [15]: 75%
residual activity [16]: 84%
inhibition [17]: 5.1%
residual activity [18]: 82%
residual activity [19]: 89%
residual activity [20]: 78%
residual activity [21]: 100%
residual activity [22]: 93%
residual activity [23]: 92%
inhibition [24]: 56.8%
residual activity [25]: 92%
residual activity [26]: 99%
residual activity [27]: 100%
residual activity [28]: 100%
residual activity [29]: 93%
residual activity [30]: 94%
residual activity [31]: 90%
residual activity [32]: 73%
residual activity [33]: 92%
residual activity [34]: 94%
residual activity [35]: 100%
residual activity [36]: 91%
residual activity [37]: 94%
residual activity [38]: 100%
residual activity [39]: 72%
residual activity [40]: 76%
residual activity [41]: 93%
residual activity [42]: 94%
residual activity [43]: 78%
residual activity [44]: 89%
residual activity [45]: 97%

CO[C@@H](C)c1c(Nc2ccc([C@H](N(C)C(=O)C3CCS(=O)(=O)CC3)C(F)(F)F)cc2)cnc2cc(Cl)nn12 [NVS-MALT1]
inhibition [1]: 2.45%
residual activity [2]: 59%
residual activity [3]: 100%
residual activity [4]: 97%
residual activity [5]: 100%
residual activity [6]: 84%
residual activity [7]: 90%
residual activity [8]: 98%
residual activity [9]: 88%
residual activity [10]: 89%
residual activity [11]: 100%
residual activity [12]: 100%
residual activity [13]: 92%
residual activity [14]: 100%
residual activity [15]: 76%
residual activity [16]: 86%
inhibition [17]: 14.6%
residual activity [18]: 93%
residual activity [19]: 79%
residual activity [20]: 68%
residual activity [21]: 93%
residual activity [22]: 93%
residual activity [23]: 100%
inhibition [24]: 18.8%
residual activity [25]: 87%
residual activity [26]: 100%
residual activity [27]: 100%
residual activity [28]: 100%
residual activity [29]: 100%
residual activity [30]: 100%
residual activity [31]: 79%
residual activity [32]: 73%
residual activity [33]: 88%
residual activity [34]: 100%
residual activity [35]: 98%
residual activity [36]: 91%
residual activity [37]: 86%
residual activity [38]: 90%
residual activity [39]: 51%
residual activity [40]: 72%
residual activity [41]: 85%
residual activity [42]: 91%
residual activity [43]: 97%
residual activity [44]: 88%
residual activity [45]: 100%
